# Results taken from US20080262049A1, “Therapeutic Agent for Hematopoietic Tumor” (KYOWA HAKKO KOGYO CO., LTD., priority 2005, published 2008).
# Assays:
# [1] = system: human chronic myeloid leukemia K-562 cells; test: Cell growth inhibition test against hematopoietic tumor cell lines (XTT), K-562; assay type: cell-based; conditions: K562, 72 hours culture with compound, read-out: growth inhibitory activity, GI50 value
# Text: (§1) As hematopoietic tumor cell lines, human acute lymphoblastic leukemia RS4;11 cells (ATCC No. CRL-1873), human chronic myeloid leukemia K-562 cells (ATCC No. CCL-243), and human multiple myeloma NCI-H929 cells (ATCC No. CRL-9068) were used. For the culture of the cells, RPMI 1640 Medium (Invitrogen, catalog No. 11875-093) containing 10% fetal bovine serum (Invitrogen, catalog No. 10099-141), 10 mmol/L 4-(2-hydroxyethyl)-1-piperazinethanesulfonic acid (HEPES) buffer (ICN Biomedicals, catalog No. 1688449), 1 mmol/L sodium pyruvate (Invitrogen, catalog No. 11360-070), 4.5 g/L glucose (Sigma-Aldrich, catalog No. G8769), 100 units/mL penicillin (Invitrogen, catalog No. 15140-122) and 100 μg/mL streptomycin (Invitrogen, catalog No. 15140-122) was used. The cells were cultured at 37° C. in a 5% carbon dioxide atmosphere.
# (§2) RS4;11 cells (20000 cells/well), K-562 cells (1000 cells/well), or NCI-H929 cells (15000 cells/well) were seeded in each well of 96-well plates (Nunc, catalog No. 167008), and cultured overnight. Test compounds diluted stepwise were added, and the cells were further cultured for 72 hours (final volume: 100 μL/well). Fifty μL XTT labeling mixture of Cell Proliferation Kit II (XTT) (Roche Diagnostics, catalog No. 1465015) was added to each well, and the plates were incubated at 37° C. After 4 hours, absorbance at 490 nm (reference wavelength: 655 nm) was measured with a plate reader (Molecular Device, SpectraMax 340PC^384). Growth ratios of the cells in the wells treated with the test compound was calculated based on the growth ratio of the cells in the control well treated with solvent (dimethyl sulfoxide (DMSO)) for 72 hours, which was defined as 100%.
# [2] = system: human acute myeloid leukemia MV-4-11 cells; test: Cell growth inhibition test on acute myeloid leukemia cells (XTT), MV-4-11; assay type: cell-based; conditions: MV4-11, same manner as Test Example 1, read-out: growth inhibitory activity, GI50 value
# Procedure: as §2
# (§3) As cancer cell lines, human acute myeloid leukemia MV-4-11 cells (ATCC No. CRL-9591) and human non-Hodgkin's lymphoma SR cells (ATCC No. CRL-2262) were used. The cells were cultured at 37° C. in a 5% carbon dioxide atmosphere by using the mediums mentioned below, respectively.
# (§4) In the same manner as that of Test Example 1, the cells were seeded (8000 to 16000 cells/well, respectively) in each well of 96-well plates (Nunc, catalog No. 167008), and growth ratios of the cells treated with test compounds were calculated. Measurement of absorbance was performed at 3 to 4 hours after the addition of the XTT labeling mixture.
# [3] = system: human multiple myeloma NCI-H929 cells; test: Cell growth inhibition test against hematopoietic tumor cell lines (XTT), NCI-H929; assay type: cell-based; conditions: 72 hours culture with compound, read-out: growth inhibitory activity, GI50 value
# Text: as §1, §2
# [4] = system: human acute lymphoblastic leukemia RS4;11 cells; test: Cell growth inhibition test against hematopoietic tumor cell lines (XTT), RS4;11; assay type: cell-based; conditions: 72 hours culture with compound, read-out: growth inhibitory activity, GI50 value
# Text: as §1, §2
# [5] = system: human non-Hodgkin's lymphoma SR cells; test: Cell growth inhibition test on non-Hodgkin's lymphoma cells (XTT), SR; assay type: cell-based; conditions: same manner as Test Example 1, read-out: growth inhibitory activity, GI50 value
# Procedure: as §2, §3, §4
# [6] = target: T1, recombinant human Eg5 motor domain protein (Homo sapiens, UniProt P52732); test: Eg5 enzyme inhibition test (ATPase activity); assay type: biochemical; conditions: for inhibition of the ATPase activity of Eg5 (in words): 30° C., 30 minutes, absorbance at 360 nm; for Eg5 inhibitory activity compared with the corresponding racemic mixture (in words): versus Compounds 3, 4, 6, 7, 20, 14, 9, 8, the respectively corresponding racemic mixtures
# T1 construct: A plasmid expressing the motor domain of human Eg5 was constructed; made in house; host or cells: Escherichia coli BL21 (DE3)
# T1 sequence (P52732 18-359 limits assumed): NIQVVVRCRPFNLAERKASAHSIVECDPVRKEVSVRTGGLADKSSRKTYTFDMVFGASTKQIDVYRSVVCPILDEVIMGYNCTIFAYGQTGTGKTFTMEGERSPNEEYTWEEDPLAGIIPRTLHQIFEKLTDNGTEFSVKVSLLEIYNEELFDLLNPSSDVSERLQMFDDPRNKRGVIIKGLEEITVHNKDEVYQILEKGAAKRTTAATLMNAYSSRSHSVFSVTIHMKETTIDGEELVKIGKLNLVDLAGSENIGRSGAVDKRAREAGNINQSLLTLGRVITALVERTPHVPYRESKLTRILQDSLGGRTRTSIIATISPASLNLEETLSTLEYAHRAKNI
# Procedure: A recombinant human Eg5 motor domain protein was prepared by referring to the literature [Biochemistry, Vol. 35, p. […] A plasmid expressing the motor domain of human Eg5 was constructed, and transformed into Eseherichia coli BL21 (DE3). The transformant was cultured at 25° C., and when the OD600 reached 0.74, isopropyl-β-D-thiogalactoside was added at a final concentration of 0.5 mmol/L. The transformant was further cultured for 4 hours, and then the culture medium was centrifuged to collect the cells. The cells were suspended in a buffer and ultrasonicated, and then the sonicated solution was centrifuged to recover the supernatant. The supernatant was purified by cation exchange column chromatography to obtain a partially purified sample. Furthermore, the partially purified sample was purified by gel filtration column chromatography to obtain a finally purified sample.
# Measurement of the ATPase activity of Eg5 was carried out by referring to the literatures [EMBO Journal, Vol. 13, p. […] Solution A was dispensed into each well of a 96-well plate as 45 μL portions. Solution B was used to serially dilute a test compound. The diluted test compound solutions in a volume of 30 μL were mixed with Solution A added beforehand in each well of the 96-well plate to start the enzymatic reaction. The enzymatic reaction was performed at 30° C. for 30 minutes. […] The relative activity was calculated to calculate IC50 value.
SMILES,GI50 [1] [µM],melting point [°C],GI50 [2] [µM],GI50 [3] [µM],GI50 [4] [µM],GI50 [5] [µM],Eg5 inhibitory activity compared with the corresponding racemic mixture (in words) [6],inhibition of the ATPase activity of Eg5 (in words) [6]
"CC(C)(C)C(=O)N1N=C(N2CCCC2=O)SC1(CCNS(C)(=O)=O)c1ccccc1 (single isomer, unassigned; (-)) [Compound c, (−)-N-{2-[3-(2,2-Dimethylpropionyl)-5-(2-oxopyrrolidin-1-yl)-2-phenyl-2,3-dihydro-1,3,4-thiadiazol-2-yl]ethyl}methanesulfonamide]",–,107 to 110,–,–,–,–,–,–
"CCC(=O)N1N=C(N2CCCC2=O)SC1(CCNS(C)(=O)=O)c1ccccc1 (single isomer, unassigned; (-)) [Compound e, (−)-N-{2-[5-(2-Oxopyrrolidin-1-yl)-2-phenyl-3-propionyl-2,3-dihydro-1,3,4-thiadiazol-2-yl]ethyl}methanesulfonamide]",< 10,188 to 191,< 10,< 10,< 10,< 10,stronger inhibitory activities,inhibited the ATPase activity of Eg5 in a concentration-dependent manner

# Second part, led by results:
GI50 [1] [µM],melting point [°C],GI50 [2] [µM],GI50 [3] [µM],GI50 [4] [µM],GI50 [5] [µM],Eg5 inhibitory activity compared with the corresponding racemic mixture (in words) [6],SMILES,inhibition of the ATPase activity of Eg5 (in words) [6]
< 10,101 to 104,< 10,< 10,< 10,< 10,–,"CN(C)CCS(=O)(=O)NCC1(c2ccccc2)SC(NC(=O)C(C)(C)C)=NN1C(=O)C(C)(C)C (single isomer, unassigned; (-)) [Compound m, (−)-N-[5-(2-Dimethylaminoethanesulfonylaminomethyl)-4-(2,2-dimethylpropionyl)-5-phenyl-4,5-dihydro-1,3,4-thiadiazol-2-yl]-2,2-dimethylpropanamide]",–
< 10,169 to 171,< 10,< 10,< 10,< 10,stronger inhibitory activities,"CC(=O)N1N=C(N2CCCCC2=O)SC1(CCNS(C)(=O)=O)c1ccccc1 (single isomer, unassigned; (-)) [Compound h, (−)-N-{2-[3-Acetyl-5-(2-oxopiperidino)-2-phenyl-2,3-dihydro-1,3,4-thiadiazol-2-yl]ethyl}methanesulfonamide]",inhibited the ATPase activity of Eg5 in a concentration-dependent manner
< 10,92 to 95,< 10,< 10,< 10,< 10,–,"CN(C)CCCS(=O)(=O)NCC1(c2ccccc2)SC(NC(=O)C(C)(C)C)=NN1C(=O)C(C)(C)C (single isomer, unassigned; (-)) [Compound n, (−)-N-[5-(3-Dimethylaminopropanesulfonylaminomethyl)-4-(2,2-dimethylpropionyl)-5-phenyl-4,5-dihydro-1,3,4-thiadiazol-2-yl]-2,2-dimethylpropanamide]",–
